Experimental data taken from ChEMBL document CHEMBL4219211, “Design and discovery of thioether and nicotinamide containing sorafenib analogues as multikinase inhibitors targeting B-Raf, B-RafV600E and VEGFR-2” (Bioorg Med Chem, 2018).
The source made the active and inactive calls. The rule behind the calls is not given here.

What follows are compounds tested against Vascular endothelial growth factor receptor 2 (Homo sapiens, UniProt P35968) (assay: Inhibition of VEGFR2 (unknown origin) using FAM-labelled peptide as substrate pretreated for 10 mins followed by substrate addition measured after 30 mins by caliper mobility shift assay). Details: not given.
Chain of Vascular endothelial growth factor receptor 2 (P35968 whole entry): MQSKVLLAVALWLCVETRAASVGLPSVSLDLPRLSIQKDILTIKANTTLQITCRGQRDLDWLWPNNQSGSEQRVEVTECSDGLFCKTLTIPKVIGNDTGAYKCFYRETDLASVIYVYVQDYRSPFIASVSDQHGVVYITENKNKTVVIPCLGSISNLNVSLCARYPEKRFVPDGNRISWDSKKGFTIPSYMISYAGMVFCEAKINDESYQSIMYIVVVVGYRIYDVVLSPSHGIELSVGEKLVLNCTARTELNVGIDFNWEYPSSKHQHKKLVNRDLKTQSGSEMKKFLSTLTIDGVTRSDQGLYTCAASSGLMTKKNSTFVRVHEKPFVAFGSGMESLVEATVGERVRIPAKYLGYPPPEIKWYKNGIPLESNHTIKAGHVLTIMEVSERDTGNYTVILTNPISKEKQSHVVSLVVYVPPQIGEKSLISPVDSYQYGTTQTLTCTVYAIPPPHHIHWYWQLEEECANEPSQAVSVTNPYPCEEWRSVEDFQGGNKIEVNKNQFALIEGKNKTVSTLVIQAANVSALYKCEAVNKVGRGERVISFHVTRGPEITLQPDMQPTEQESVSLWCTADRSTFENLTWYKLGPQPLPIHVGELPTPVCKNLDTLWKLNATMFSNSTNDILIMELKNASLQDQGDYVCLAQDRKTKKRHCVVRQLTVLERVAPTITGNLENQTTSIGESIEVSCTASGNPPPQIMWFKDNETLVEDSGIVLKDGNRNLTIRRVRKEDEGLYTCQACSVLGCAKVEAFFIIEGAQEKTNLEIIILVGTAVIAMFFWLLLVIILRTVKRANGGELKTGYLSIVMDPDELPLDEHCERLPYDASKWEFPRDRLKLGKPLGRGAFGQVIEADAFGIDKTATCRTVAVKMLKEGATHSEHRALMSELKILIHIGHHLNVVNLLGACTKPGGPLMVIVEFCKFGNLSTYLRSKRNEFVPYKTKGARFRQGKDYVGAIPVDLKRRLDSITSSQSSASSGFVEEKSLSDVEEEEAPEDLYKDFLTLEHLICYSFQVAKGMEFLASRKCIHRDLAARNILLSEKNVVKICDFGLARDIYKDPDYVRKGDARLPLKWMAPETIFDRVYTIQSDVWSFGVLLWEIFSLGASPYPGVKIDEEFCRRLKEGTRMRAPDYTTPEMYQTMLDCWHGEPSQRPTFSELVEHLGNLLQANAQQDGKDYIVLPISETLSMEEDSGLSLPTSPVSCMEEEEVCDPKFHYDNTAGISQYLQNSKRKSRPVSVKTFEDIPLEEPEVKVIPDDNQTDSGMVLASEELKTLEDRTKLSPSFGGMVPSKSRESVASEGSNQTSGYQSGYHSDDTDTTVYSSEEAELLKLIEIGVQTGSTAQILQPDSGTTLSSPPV

**Q.** How did the IC50 turn out when `CNC(=O)c1ccc(Sc2cccc(NC(=S)Nc3ccc(Cl)cc3)c2)nc1` was run?
**A.** The IC50 was 5990 nM.

**Q.** For `CNC(=O)c1ccc(Sc2ccc(NC(=S)Nc3ccc(Cl)cc3)cc2)nc1`, which IC50 is on record?
**A.** Its IC50 is 8660 nM.

**Q.** How did the IC50 turn out when `CNC(=O)c1ccc(Sc2ccc(NC(=S)Nc3ccc(F)c(C(F)(F)F)c3)cc2)nc1` was run?
**A.** The IC50 was 74 nM.

**Q.** With `CNC(=O)c1ccc(Sc2ccc(NC(=O)Nc3ccc(Cl)c(C(F)(F)F)c3)cc2)nc1` as the compound, how does the IC50 read?
**A.** Its IC50 is 84 nM.

**Q.** For `CNC(=O)c1ccc(Sc2cccc(NC(=S)Nc3ccc(Br)c(C(F)(F)F)c3)c2)nc1`, which IC50 is on record?
**A.** The IC50 was 133 nM.

**Q.** With `CNC(=O)c1ccc(Sc2ccc(NC(=O)Nc3ccc(F)c(C(F)(F)F)c3)cc2)nc1` as the compound, how does the IC50 read?
**A.** The IC50 was 102 nM.

**Q.** How did the IC50 turn out when `CNC(=O)c1ccc(Sc2cccc(NC(=S)Nc3cc(C(F)(F)F)cc(C(F)(F)F)c3)c2)nc1` was run?
**A.** The IC50 was 887 nM.

**Q.** For `CNC(=O)c1ccc(Sc2ccc(NC(=S)Nc3ccc(OC(F)(F)F)cc3)cc2)nc1`, which IC50 is on record?
**A.** Its IC50 is greater than 10000 nM.

**Q.** For `CNC(=O)c1ccc(Sc2ccc(NC(=O)Nc3cc(C(F)(F)F)cc(C(F)(F)F)c3)cc2)nc1`, which IC50 is on record?
**A.** The IC50 was 508 nM.

These compounds were tested on HUVEC (assay: Antiangiogenic activity against HUVEC assessed as reduction in tube formation at 0.05 uM after 6 hrs by matrigel based phase contrast microscopic analysis). Details: not given.
Format: functional, Homo sapiens
Set-up: scale not given: the % may be the effect or the level left

**Q.** Which Activity does the source give for `CNC(=O)c1ccc(Sc2ccc(NC(=O)Nc3ccc(Cl)c(C(F)(F)F)c3)cc2)nc1` here?
**A.** The Activity was 100%.

Same assay, conditions: Homo sapiens

**Q.** How did the Activity turn out when `CNC(=O)c1cc(Oc2ccc(NC(=O)Nc3ccc(Cl)c(C(F)(F)F)c3)cc2)ccn1` [SORAFENIB] was run?
**A.** The Activity was “Active”.

What follows are compounds tested on B16-BL6 (assay: cells). Details: Mus musculus, B16-BL6, 48 h.
Description: Cytotoxicity against mouse B16-BL6 cells after 48 hrs by MTT assay

**Q.** `CNC(=O)c1ccc(Sc2cccc(NC(=S)Nc3ccc(Cl)cc3)c2)nc1` was tested. Which IC50 did it give?
**A.** Its IC50 is 67500 nM.

**Q.** `CNC(=O)c1ccc(Sc2ccc(NC(=S)Nc3ccc(Cl)cc3)cc2)nc1` was tested. Which IC50 did it give?
**A.** Its IC50 is 69300 nM.

**Q.** `CNC(=O)c1ccc(Sc2ccc(NC(=S)Nc3ccc(F)c(C(F)(F)F)c3)cc2)nc1` was tested. Which IC50 did it give?
**A.** The IC50 was 29300 nM.

**Q.** For `CNC(=O)c1ccc(Sc2ccc(NC(=O)Nc3ccc(Cl)c(C(F)(F)F)c3)cc2)nc1`, which IC50 is on record?
**A.** Its IC50 is 24600 nM.

**Q.** For `CNC(=O)c1ccc(Sc2cccc(NC(=S)Nc3ccc(Br)c(C(F)(F)F)c3)c2)nc1`, which IC50 is on record?
**A.** Its IC50 is greater than 100000 nM.

**Q.** `CNC(=O)c1ccc(Sc2ccc(NC(=O)Nc3ccc(F)c(C(F)(F)F)c3)cc2)nc1` was tested. Which IC50 did it give?
**A.** Its IC50 is 39600 nM.

**Q.** With `CNC(=O)c1ccc(Sc2cccc(NC(=S)Nc3cc(C(F)(F)F)cc(C(F)(F)F)c3)c2)nc1` as the compound, how does the IC50 read?
**A.** Its IC50 is 54200 nM.

**Q.** `CNC(=O)c1ccc(Sc2ccc(NC(=S)Nc3ccc(OC(F)(F)F)cc3)cc2)nc1` was tested. Which IC50 did it give?
**A.** The IC50 was greater than 100000 nM.

**Q.** With `CNC(=O)c1ccc(Sc2ccc(NC(=O)Nc3cc(C(F)(F)F)cc(C(F)(F)F)c3)cc2)nc1` as the compound, how does the IC50 read?
**A.** The IC50 was 45200 nM.

**Q.** For `CNC(=O)c1cc(Oc2ccc(NC(=O)Nc3ccc(Cl)c(C(F)(F)F)c3)cc2)ccn1` [SORAFENIB], which IC50 is on record?
**A.** Its IC50 is 36500 nM.

These compounds were tested against T1, Receptor-type tyrosine-protein kinase FLT3 (Homo sapiens, UniProt P36888) (assay: Inhibition of FLT3 (unknown origin)). Details: not given.
T1 sequence (P36888 whole entry): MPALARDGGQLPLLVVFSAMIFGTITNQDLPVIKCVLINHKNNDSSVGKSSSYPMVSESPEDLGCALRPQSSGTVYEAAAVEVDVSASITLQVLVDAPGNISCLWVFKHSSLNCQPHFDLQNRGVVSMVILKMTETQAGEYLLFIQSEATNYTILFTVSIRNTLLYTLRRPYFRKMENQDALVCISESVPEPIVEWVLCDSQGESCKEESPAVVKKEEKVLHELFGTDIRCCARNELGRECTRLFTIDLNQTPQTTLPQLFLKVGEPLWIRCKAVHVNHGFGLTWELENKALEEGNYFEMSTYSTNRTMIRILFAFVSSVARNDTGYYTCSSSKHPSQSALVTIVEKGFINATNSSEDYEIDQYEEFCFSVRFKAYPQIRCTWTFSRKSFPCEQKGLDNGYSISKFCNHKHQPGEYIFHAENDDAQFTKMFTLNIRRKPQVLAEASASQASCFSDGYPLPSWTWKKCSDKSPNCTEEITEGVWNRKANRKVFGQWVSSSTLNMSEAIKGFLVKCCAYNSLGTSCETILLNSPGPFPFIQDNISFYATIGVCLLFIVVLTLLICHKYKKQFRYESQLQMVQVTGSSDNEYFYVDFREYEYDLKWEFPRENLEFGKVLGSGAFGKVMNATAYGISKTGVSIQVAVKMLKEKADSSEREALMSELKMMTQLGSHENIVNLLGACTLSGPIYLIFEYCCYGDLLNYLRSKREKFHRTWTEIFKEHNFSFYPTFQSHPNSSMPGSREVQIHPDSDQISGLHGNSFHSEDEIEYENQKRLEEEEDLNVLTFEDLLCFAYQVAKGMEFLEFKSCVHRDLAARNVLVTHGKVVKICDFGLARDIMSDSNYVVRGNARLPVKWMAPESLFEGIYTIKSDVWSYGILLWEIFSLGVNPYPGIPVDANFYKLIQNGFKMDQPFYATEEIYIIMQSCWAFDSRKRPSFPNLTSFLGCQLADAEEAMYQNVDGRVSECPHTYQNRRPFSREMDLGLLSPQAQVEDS

**Q.** Which IC50 does the source give for `CNC(=O)c1ccc(Sc2ccc(NC(=O)Nc3ccc(Cl)c(C(F)(F)F)c3)cc2)nc1` here?
**A.** The IC50 was 67 nM.

The compounds below were run against Serine/threonine-protein kinase B-raf (Homo sapiens, UniProt P15056, V600E) (assay: Inhibition of B-Raf V600E mutant (unknown origin) using MEK1 as substrate measured after 2 hrs by ELISA). Details: not given.
Chain of Serine/threonine-protein kinase B-raf (Homo sapiens, UniProt P15056, V600E) (P15056 2-766 V600E limits assumed): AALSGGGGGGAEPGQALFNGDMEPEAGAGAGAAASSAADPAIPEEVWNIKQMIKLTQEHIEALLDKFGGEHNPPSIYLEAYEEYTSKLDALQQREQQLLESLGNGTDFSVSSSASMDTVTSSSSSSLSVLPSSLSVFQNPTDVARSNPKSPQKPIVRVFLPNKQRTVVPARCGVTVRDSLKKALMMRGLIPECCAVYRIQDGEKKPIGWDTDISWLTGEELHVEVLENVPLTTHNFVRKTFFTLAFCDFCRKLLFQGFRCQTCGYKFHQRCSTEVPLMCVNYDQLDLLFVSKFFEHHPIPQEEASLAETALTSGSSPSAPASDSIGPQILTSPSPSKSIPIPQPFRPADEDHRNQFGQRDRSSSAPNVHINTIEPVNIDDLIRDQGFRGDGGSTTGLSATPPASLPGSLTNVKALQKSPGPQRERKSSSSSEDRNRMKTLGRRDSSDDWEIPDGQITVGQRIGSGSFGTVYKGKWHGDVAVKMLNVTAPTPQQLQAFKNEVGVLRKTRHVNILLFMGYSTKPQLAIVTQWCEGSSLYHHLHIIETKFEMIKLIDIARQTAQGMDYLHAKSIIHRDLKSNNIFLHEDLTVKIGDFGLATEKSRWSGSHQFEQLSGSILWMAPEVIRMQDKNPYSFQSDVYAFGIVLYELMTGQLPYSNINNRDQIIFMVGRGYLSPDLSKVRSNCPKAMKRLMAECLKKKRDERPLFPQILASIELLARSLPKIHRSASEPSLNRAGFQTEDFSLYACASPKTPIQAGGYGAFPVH

**Q.** Which IC50 does the source give for `CNC(=O)c1ccc(Sc2cccc(NC(=S)Nc3ccc(Cl)cc3)c2)nc1` here?
**A.** The IC50 was 857 nM.

**Q.** For `CNC(=O)c1ccc(Sc2ccc(NC(=S)Nc3ccc(Cl)cc3)cc2)nc1`, which IC50 is on record?
**A.** Its IC50 is 1780 nM.

**Q.** Which IC50 does the source give for `CNC(=O)c1ccc(Sc2ccc(NC(=S)Nc3ccc(F)c(C(F)(F)F)c3)cc2)nc1` here?
**A.** Its IC50 is 45 nM.

**Q.** How did the IC50 turn out when `CNC(=O)c1ccc(Sc2ccc(NC(=O)Nc3ccc(Cl)c(C(F)(F)F)c3)cc2)nc1` was run?
**A.** Its IC50 is 29 nM.

**Q.** For `CNC(=O)c1ccc(Sc2ccc(NC(=O)Nc3ccc(F)c(C(F)(F)F)c3)cc2)nc1`, which IC50 is on record?
**A.** The IC50 was 65 nM.

**Q.** For `CNC(=O)c1ccc(Sc2cccc(NC(=S)Nc3cc(C(F)(F)F)cc(C(F)(F)F)c3)c2)nc1`, which IC50 is on record?
**A.** The IC50 was 169 nM.

**Q.** Which IC50 does the source give for `CNC(=O)c1ccc(Sc2ccc(NC(=S)Nc3ccc(OC(F)(F)F)cc3)cc2)nc1` here?
**A.** Its IC50 is greater than 10000 nM.

**Q.** `CNC(=O)c1ccc(Sc2ccc(NC(=O)Nc3cc(C(F)(F)F)cc(C(F)(F)F)c3)cc2)nc1` was tested. Which IC50 did it give?
**A.** Its IC50 is 196 nM.

The compounds below were run against Mast/stem cell growth factor receptor Kit (Homo sapiens, UniProt P10721) (assay: Inhibition of c-KIT (unknown origin)). Details: not given.
Chain of Mast/stem cell growth factor receptor Kit (P10721 whole entry): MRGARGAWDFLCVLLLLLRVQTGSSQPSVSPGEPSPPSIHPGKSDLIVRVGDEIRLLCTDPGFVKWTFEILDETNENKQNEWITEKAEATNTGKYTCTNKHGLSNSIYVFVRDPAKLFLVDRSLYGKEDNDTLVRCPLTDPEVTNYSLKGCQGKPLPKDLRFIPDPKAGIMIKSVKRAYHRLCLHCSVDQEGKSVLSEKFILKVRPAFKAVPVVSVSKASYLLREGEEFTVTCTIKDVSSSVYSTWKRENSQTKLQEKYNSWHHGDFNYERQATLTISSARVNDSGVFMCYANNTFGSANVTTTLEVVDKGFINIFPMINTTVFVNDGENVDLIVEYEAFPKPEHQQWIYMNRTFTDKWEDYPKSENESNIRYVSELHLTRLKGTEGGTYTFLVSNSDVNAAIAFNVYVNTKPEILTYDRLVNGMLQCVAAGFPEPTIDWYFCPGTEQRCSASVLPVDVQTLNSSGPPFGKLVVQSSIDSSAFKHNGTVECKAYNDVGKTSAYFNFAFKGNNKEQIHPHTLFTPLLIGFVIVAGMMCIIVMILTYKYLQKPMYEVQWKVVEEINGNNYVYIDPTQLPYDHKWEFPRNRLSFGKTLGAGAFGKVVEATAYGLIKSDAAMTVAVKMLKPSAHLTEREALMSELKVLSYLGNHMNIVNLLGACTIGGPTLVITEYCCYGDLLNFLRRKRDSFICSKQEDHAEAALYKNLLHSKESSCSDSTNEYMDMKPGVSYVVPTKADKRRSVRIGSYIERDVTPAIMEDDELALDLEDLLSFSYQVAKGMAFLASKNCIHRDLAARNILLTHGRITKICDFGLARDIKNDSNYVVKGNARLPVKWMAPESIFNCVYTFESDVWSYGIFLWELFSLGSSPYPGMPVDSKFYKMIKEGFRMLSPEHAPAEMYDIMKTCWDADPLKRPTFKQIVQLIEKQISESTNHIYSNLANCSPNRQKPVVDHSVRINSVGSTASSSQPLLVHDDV

**Q.** Which IC50 does the source give for `CNC(=O)c1ccc(Sc2ccc(NC(=O)Nc3ccc(Cl)c(C(F)(F)F)c3)cc2)nc1` here?
**A.** Its IC50 is 535 nM.

These compounds were tested against Epidermal growth factor receptor (Homo sapiens, UniProt P00533) (assay: Inhibition of EGFR (unknown origin)). Details: not given.
Chain of Epidermal growth factor receptor (P00533 whole entry): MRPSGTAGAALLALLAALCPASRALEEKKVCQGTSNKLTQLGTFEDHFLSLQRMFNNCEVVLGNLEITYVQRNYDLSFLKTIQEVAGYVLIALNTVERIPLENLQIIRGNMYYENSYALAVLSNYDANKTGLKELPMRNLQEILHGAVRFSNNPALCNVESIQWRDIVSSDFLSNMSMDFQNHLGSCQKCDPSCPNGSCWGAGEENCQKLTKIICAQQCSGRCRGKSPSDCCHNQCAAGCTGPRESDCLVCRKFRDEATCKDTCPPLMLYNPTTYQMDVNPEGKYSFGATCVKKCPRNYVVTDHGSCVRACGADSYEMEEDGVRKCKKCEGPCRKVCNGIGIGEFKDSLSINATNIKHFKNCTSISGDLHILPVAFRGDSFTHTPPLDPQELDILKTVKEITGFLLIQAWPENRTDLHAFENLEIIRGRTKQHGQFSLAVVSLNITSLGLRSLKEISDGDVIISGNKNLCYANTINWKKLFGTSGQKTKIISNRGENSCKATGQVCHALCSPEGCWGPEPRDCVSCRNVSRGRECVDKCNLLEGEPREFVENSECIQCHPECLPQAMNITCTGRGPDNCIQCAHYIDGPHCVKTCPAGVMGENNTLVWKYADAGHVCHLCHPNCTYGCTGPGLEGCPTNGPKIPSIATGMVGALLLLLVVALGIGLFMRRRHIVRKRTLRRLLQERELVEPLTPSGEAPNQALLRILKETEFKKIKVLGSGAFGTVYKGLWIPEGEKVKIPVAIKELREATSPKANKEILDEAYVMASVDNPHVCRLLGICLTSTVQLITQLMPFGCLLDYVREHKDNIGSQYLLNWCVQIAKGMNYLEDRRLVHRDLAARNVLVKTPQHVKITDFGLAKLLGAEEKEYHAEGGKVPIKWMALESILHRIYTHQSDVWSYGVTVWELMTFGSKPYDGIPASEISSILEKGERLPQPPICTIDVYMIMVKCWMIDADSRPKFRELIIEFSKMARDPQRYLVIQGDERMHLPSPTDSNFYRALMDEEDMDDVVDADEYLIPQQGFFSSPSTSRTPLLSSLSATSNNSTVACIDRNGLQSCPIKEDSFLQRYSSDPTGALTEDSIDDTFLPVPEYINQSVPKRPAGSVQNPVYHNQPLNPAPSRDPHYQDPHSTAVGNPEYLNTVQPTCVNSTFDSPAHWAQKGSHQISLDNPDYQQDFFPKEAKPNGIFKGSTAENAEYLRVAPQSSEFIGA

**Q.** With `CNC(=O)c1ccc(Sc2ccc(NC(=O)Nc3ccc(Cl)c(C(F)(F)F)c3)cc2)nc1` as the compound, how does the IC50 read?
**A.** The IC50 was greater than 1000 nM.

These compounds were tested on HCT-116 (assay: cells). Details: Homo sapiens, HCT-116, 48 h.
Description: Cytotoxicity against human HCT116 cells after 48 hrs by MTT assay

**Q.** With `CNC(=O)c1ccc(Sc2cccc(NC(=S)Nc3ccc(Cl)cc3)c2)nc1` as the compound, how does the IC50 read?
**A.** Its IC50 is 39500 nM.

**Q.** With `CNC(=O)c1ccc(Sc2ccc(NC(=S)Nc3ccc(Cl)cc3)cc2)nc1` as the compound, how does the IC50 read?
**A.** The IC50 was 34500 nM.

**Q.** With `CNC(=O)c1ccc(Sc2ccc(NC(=S)Nc3ccc(F)c(C(F)(F)F)c3)cc2)nc1` as the compound, how does the IC50 read?
**A.** The IC50 was 6370 nM.

**Q.** With `CNC(=O)c1ccc(Sc2ccc(NC(=O)Nc3ccc(Cl)c(C(F)(F)F)c3)cc2)nc1` as the compound, how does the IC50 read?
**A.** The IC50 was 5290 nM.

**Q.** `CNC(=O)c1ccc(Sc2cccc(NC(=S)Nc3ccc(Br)c(C(F)(F)F)c3)c2)nc1` was tested. Which IC50 did it give?
**A.** Its IC50 is 16500 nM.

**Q.** How did the IC50 turn out when `CNC(=O)c1ccc(Sc2ccc(NC(=O)Nc3ccc(F)c(C(F)(F)F)c3)cc2)nc1` was run?
**A.** The IC50 was 5800 nM.

**Q.** `CNC(=O)c1ccc(Sc2cccc(NC(=S)Nc3cc(C(F)(F)F)cc(C(F)(F)F)c3)c2)nc1` was tested. Which IC50 did it give?
**A.** The IC50 was 5020 nM.

**Q.** With `CNC(=O)c1ccc(Sc2ccc(NC(=S)Nc3ccc(OC(F)(F)F)cc3)cc2)nc1` as the compound, how does the IC50 read?
**A.** Its IC50 is greater than 100000 nM.

**Q.** How did the IC50 turn out when `CNC(=O)c1ccc(Sc2ccc(NC(=O)Nc3cc(C(F)(F)F)cc(C(F)(F)F)c3)cc2)nc1` was run?
**A.** The IC50 was 7090 nM.

The compounds below were run on HUVEC (assay: Antiangiogenic activity against HUVEC assessed as reduction in tube formation at 0.1 uM after 6 hrs by matrigel based phase contrast microscopic analysis). Details: not given.
Format: functional, Homo sapiens
Set-up: scale not given: the % may be the effect or the level left

**Q.** How did the Activity turn out when `CNC(=O)c1cc(Oc2ccc(NC(=O)Nc3ccc(Cl)c(C(F)(F)F)c3)cc2)ccn1` [SORAFENIB] was run?
**A.** Its Activity is 100%.

Each compound was assayed against Serine/threonine-protein kinase B-raf (Homo sapiens, UniProt P15056) (assay: Inhibition of B-Raf (unknown origin) using MEK1 as substrate measured after 2 hrs by ELISA). Details: not given.
Chain of Serine/threonine-protein kinase B-raf (Homo sapiens, UniProt P15056) (P15056 whole entry): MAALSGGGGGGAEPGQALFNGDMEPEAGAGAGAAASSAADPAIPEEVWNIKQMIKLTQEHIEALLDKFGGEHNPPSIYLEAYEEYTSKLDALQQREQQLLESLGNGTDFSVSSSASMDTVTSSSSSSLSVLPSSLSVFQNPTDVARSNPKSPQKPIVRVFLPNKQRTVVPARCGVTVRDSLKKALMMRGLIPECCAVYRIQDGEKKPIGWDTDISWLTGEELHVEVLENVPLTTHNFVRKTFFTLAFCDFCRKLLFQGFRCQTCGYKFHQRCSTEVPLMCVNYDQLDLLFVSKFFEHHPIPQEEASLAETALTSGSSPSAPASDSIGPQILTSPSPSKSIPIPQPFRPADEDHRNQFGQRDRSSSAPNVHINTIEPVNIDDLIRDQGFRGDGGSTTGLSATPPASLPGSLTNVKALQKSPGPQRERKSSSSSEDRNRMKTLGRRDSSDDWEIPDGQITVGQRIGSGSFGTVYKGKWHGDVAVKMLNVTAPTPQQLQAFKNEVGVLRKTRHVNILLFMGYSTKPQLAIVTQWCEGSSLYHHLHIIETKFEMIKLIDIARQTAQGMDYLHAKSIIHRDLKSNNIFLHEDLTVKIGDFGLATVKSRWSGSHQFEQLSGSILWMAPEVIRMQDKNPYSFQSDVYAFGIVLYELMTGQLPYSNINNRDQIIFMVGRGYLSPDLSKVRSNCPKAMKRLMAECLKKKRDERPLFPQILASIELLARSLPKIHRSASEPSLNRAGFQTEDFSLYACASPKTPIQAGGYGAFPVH

**Q.** For `CNC(=O)c1ccc(Sc2cccc(NC(=S)Nc3ccc(Cl)cc3)c2)nc1`, which IC50 is on record?
**A.** Its IC50 is 791 nM.

**Q.** How did the IC50 turn out when `CNC(=O)c1ccc(Sc2ccc(NC(=S)Nc3ccc(Cl)cc3)cc2)nc1` was run?
**A.** The IC50 was 2060 nM.

**Q.** For `CNC(=O)c1ccc(Sc2ccc(NC(=S)Nc3ccc(F)c(C(F)(F)F)c3)cc2)nc1`, which IC50 is on record?
**A.** The IC50 was 33 nM.

**Q.** For `CNC(=O)c1ccc(Sc2ccc(NC(=O)Nc3ccc(Cl)c(C(F)(F)F)c3)cc2)nc1`, which IC50 is on record?
**A.** Its IC50 is 21 nM.

**Q.** How did the IC50 turn out when `CNC(=O)c1ccc(Sc2ccc(NC(=O)Nc3ccc(F)c(C(F)(F)F)c3)cc2)nc1` was run?
**A.** Its IC50 is 48 nM.

**Q.** With `CNC(=O)c1ccc(Sc2cccc(NC(=S)Nc3cc(C(F)(F)F)cc(C(F)(F)F)c3)c2)nc1` as the compound, how does the IC50 read?
**A.** Its IC50 is 158 nM.

**Q.** For `CNC(=O)c1ccc(Sc2ccc(NC(=S)Nc3ccc(OC(F)(F)F)cc3)cc2)nc1`, which IC50 is on record?
**A.** Its IC50 is 9870 nM.

**Q.** Which IC50 does the source give for `CNC(=O)c1ccc(Sc2ccc(NC(=O)Nc3cc(C(F)(F)F)cc(C(F)(F)F)c3)cc2)nc1` here?
**A.** The IC50 was 93 nM.
